{"source": "paper PMC5095062", "about": "“The novel choline kinase inhibitor ICL-CCIC-0019 reprograms cellular metabolism and inhibits cancer cell growth” (Oncotarget, 2016)", "key": {"[1]": {"test": "Plasma metabolite analysis by LC-MS", "format": "in vivo, BALB/c mice", "conditions": "pooled 2-hour plasma samples", "description": "Plasma pharmacokinetic parameters of ICL-CCIC-0019 were established in female BALB/c mice aged 6–8 weeks (Harlan). Mice were intraperitoneally (i.p.) or perorally (p.o.) administered a single dose of 10 mg/kg and blood collected by cardiac puncture after 5, 15, 30 minutes and 1, 2, 4, 6 and 24 h. For tissue pharmacokinetic studies, HCT116 xenograft bearing mice were administered 10 mg/kg ICL-CCIC-0019 i.p. and blood collected after 5 minutes, 2, 6 and 24 h. Plasma was obtained by centrifugation at 1000 × g for 10 minutes. Samples were snap-frozen and stored at −80°C prior to analysis. Analysis was carried out by Cyprotex Inc. using liquid chromatography–mass spectrometry (LC–MS). For analysis of plasma metabolites, 2-hour samples of tissue pharmacokinetic studies were pooled."}, "HCT116 xenografts": {"test_system": "HCT116 xenografts", "test": "[18F]-D4-FCH PET imaging", "format": "in vivo, BALB/c nude mice", "text": "Mice were anesthetized through isoflurane inhalation and scanned on a Siemens Multimodality Inveon small animal PET-CT scanner for [^18F]-D4-FCH PET studies using HCT116 xenografts. Low dose CT scans were first acquired (80 kVp, 0.5 mA, 220 degree rotation, 600 ms per degree exposure time, 80 μm reconstruction pixel size) for PET attenuation correction and anatomical reference. PET images were acquired following a bolus i.v. injection of approximately 3.7 MBq tracer in the tail vein. Dynamic emission scans were acquired in list mode format over 60 minutes. Data were sorted into 0.5 mm sinogram bins and 19 time frames for image reconstruction by filtered back projection (4 × 15 seconds, 4 × 60 seconds and 11 × 300 seconds). The Siemens Inveon Research Workplace software was used for visualization of radiotracer uptake. To define 3-dimensional regions of interest (ROI), 30 to 60-minute cumulative images of the dynamic were employed. Arterial input function was estimated by drawing ROIs over the center of the heart cavity using cumulative images from 0.25 to 2 minutes of the dynamic series, a method previously validated for use in rodents. The count densities were averaged for all ROIs at each time point to obtain time versus radioactivity curves (TAC). Tumor TACs were normalized to injected dose measured by a VDC-304 dose calibrator (Veenstra Instruments) and normalized uptake was expressed as percentage injected dose per mL tissue (NUV; %ID/mL)."}, "Src": {"target": "Src (Homo sapiens, UniProt P12931)", "test": "Kinase selectivity screen", "format": "biochemical", "outline": "(§1)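 ICL-CCIC-0019 was screened against a panel of 131 human kinases to assess kinase specificity. Activity was expressed as percent inhibition of each kinase.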"}, "JNK1": {"target": "JNK1 (Homo sapiens, UniProt P45983)", "sequence (P45983 whole entry)": "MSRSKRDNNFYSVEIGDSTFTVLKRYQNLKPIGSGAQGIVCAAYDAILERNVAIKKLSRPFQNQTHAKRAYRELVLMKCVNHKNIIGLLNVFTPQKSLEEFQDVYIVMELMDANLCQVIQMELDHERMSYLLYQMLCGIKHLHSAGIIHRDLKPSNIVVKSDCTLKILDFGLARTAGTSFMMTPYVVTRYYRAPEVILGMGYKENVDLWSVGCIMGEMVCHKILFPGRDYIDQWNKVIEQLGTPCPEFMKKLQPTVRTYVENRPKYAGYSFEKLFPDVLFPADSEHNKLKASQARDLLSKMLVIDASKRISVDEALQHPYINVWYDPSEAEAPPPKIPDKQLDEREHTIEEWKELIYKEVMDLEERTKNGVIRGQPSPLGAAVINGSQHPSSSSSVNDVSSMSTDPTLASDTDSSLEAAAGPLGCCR", "test": "Kinase selectivity screen", "format": "biochemical", "conditions": "JNK1, 10 μM"}, "MARK3": {"target": "MARK3 (Homo sapiens, UniProt P27448)", "test": "Kinase selectivity screen", "format": "biochemical", "conditions": "MARK3, 10 μM"}, "EF2K": {"target": "EF2K (Homo sapiens, UniProt O00418)", "test": "Kinase selectivity screen", "format": "biochemical", "outline": "as §1"}, "EPH-A4": {"target": "EPH-A4 (Homo sapiens, UniProt P54764)", "sequence (P54764 20-986)": "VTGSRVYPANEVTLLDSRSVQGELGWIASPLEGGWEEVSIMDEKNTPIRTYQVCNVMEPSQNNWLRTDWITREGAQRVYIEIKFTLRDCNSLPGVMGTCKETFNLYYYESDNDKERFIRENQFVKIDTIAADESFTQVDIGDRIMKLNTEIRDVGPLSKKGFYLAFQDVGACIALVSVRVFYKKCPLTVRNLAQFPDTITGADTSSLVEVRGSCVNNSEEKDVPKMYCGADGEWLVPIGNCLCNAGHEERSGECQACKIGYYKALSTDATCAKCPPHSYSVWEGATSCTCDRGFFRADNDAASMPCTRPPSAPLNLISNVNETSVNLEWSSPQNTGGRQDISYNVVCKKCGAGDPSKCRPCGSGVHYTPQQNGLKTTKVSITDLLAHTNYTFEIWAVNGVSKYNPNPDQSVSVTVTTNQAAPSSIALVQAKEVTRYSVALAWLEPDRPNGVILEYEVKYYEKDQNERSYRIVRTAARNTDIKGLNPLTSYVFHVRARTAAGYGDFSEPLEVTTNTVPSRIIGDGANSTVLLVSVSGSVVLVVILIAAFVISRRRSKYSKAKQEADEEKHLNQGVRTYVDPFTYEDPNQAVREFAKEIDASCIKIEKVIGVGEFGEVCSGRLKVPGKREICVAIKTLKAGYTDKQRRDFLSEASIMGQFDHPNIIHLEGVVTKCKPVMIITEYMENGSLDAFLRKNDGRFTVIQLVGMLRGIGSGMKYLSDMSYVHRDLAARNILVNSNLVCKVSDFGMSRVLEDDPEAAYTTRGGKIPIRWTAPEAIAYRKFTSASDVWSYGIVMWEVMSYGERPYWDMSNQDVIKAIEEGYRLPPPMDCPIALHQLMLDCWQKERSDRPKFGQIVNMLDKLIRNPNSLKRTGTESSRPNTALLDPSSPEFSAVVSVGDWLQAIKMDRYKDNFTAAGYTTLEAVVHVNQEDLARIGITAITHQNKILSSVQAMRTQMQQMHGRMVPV", "test": "Kinase selectivity screen", "format": "biochemical", "conditions": "EPH-A4, 10 μM", "outline": "as §1"}, "MAPKAP-K2": {"target": "MAPKAP-K2 (Homo sapiens, UniProt P49137)", "sequence (P49137 whole entry)": "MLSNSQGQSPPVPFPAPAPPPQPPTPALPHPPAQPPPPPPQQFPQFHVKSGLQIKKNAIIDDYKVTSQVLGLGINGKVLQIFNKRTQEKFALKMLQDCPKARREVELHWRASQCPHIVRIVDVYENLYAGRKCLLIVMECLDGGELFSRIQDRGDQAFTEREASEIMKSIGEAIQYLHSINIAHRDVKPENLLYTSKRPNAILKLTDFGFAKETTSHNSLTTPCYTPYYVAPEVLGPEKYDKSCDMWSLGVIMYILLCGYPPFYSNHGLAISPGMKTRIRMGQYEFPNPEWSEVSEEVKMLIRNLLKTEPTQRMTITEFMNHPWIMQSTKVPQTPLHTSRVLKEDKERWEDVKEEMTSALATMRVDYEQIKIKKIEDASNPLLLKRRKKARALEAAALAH", "test": "Kinase selectivity screen", "format": "biochemical", "conditions": "MAPKAP-K2, 10 μM"}, "HIPK2": {"target": "HIPK2 (Homo sapiens, UniProt Q9H2X6)", "test": "Kinase selectivity screen", "format": "biochemical", "conditions": "HIPK2, 10 μM", "outline": "as §1"}, "BRSK2": {"target": "BRSK2 (Homo sapiens, UniProt Q8IWQ3)", "sequence (Q8IWQ3 whole entry)": "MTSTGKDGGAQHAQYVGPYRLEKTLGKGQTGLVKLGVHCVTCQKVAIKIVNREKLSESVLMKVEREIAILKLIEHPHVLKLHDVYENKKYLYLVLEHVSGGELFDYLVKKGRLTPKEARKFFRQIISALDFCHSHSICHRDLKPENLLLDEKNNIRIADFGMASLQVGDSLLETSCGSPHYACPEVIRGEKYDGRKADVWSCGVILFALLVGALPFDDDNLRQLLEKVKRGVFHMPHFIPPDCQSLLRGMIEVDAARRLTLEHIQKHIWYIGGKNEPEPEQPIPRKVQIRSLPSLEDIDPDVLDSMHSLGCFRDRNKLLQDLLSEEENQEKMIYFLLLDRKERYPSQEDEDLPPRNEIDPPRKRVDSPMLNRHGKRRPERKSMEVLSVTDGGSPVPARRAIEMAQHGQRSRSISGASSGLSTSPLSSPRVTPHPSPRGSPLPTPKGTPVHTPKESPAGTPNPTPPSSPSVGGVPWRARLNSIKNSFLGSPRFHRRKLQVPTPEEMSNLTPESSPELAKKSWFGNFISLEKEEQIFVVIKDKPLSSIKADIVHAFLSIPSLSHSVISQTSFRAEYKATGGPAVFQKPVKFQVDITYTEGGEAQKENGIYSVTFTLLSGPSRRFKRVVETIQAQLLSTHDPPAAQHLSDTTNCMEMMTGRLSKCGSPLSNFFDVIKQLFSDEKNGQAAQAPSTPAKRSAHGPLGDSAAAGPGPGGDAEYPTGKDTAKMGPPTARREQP", "test": "Kinase selectivity screen", "format": "biochemical", "conditions": "BRSK2, 10 μM"}, "CAMKKb": {"target": "CAMKKb (Homo sapiens, UniProt Q96RR4)", "sequence (Q96RR4 whole entry)": "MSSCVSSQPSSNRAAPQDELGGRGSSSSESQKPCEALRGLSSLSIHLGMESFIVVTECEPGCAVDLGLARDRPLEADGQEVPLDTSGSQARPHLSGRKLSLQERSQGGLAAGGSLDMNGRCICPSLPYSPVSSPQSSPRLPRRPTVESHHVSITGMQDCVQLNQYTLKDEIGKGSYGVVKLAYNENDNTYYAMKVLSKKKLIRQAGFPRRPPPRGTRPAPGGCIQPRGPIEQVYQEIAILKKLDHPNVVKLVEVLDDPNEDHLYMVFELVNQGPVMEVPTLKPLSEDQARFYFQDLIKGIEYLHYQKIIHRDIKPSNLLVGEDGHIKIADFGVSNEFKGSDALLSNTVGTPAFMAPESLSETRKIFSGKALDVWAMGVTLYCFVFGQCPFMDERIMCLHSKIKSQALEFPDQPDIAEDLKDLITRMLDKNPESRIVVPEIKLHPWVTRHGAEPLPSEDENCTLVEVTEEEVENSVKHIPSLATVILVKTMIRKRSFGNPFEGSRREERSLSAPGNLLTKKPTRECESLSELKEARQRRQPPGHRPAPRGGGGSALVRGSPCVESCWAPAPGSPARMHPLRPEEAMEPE", "test": "Kinase selectivity screen", "format": "biochemical"}, "PKD1": {"target": "PKD1 (Homo sapiens, UniProt Q15139)", "sequence (Q15139 whole entry)": "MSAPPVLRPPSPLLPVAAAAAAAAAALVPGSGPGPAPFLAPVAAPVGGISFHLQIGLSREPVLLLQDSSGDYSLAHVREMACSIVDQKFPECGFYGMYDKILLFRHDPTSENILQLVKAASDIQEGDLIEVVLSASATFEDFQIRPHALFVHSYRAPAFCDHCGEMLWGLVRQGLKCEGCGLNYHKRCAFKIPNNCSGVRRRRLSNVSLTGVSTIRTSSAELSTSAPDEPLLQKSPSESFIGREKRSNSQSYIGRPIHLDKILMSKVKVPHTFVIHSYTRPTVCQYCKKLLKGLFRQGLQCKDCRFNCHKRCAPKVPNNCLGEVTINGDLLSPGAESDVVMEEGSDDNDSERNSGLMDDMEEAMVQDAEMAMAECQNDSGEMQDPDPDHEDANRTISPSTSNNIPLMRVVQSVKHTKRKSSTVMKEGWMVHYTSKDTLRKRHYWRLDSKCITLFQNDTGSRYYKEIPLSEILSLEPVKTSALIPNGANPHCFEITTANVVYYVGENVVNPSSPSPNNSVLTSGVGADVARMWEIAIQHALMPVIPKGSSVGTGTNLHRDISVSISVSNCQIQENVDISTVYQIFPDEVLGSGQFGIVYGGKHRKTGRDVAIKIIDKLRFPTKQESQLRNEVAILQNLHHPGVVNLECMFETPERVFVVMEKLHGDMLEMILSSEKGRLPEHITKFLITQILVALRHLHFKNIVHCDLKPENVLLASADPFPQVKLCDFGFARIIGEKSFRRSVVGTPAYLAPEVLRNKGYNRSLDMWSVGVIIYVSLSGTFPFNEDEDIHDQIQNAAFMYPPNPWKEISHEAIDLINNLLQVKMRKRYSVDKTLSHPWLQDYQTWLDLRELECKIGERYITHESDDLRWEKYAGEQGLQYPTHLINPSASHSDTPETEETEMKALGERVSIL", "test": "Kinase selectivity screen", "format": "biochemical", "conditions": "PKD1, 10 μM", "outline": "as §1"}, "TESK1": {"target": "TESK1 (Homo sapiens, UniProt Q15569)", "test": "Kinase selectivity screen", "format": "biochemical", "conditions": "TESK1, 10 μM", "outline": "as §1"}, "IKKe": {"target": "IKKe (Homo sapiens, UniProt Q14164)", "test": "Kinase selectivity screen", "format": "biochemical", "outline": "as §1"}, "SmMLCK": {"target": "SmMLCK (Homo sapiens, UniProt Q15746)", "sequence (Q15746 923-1914)": "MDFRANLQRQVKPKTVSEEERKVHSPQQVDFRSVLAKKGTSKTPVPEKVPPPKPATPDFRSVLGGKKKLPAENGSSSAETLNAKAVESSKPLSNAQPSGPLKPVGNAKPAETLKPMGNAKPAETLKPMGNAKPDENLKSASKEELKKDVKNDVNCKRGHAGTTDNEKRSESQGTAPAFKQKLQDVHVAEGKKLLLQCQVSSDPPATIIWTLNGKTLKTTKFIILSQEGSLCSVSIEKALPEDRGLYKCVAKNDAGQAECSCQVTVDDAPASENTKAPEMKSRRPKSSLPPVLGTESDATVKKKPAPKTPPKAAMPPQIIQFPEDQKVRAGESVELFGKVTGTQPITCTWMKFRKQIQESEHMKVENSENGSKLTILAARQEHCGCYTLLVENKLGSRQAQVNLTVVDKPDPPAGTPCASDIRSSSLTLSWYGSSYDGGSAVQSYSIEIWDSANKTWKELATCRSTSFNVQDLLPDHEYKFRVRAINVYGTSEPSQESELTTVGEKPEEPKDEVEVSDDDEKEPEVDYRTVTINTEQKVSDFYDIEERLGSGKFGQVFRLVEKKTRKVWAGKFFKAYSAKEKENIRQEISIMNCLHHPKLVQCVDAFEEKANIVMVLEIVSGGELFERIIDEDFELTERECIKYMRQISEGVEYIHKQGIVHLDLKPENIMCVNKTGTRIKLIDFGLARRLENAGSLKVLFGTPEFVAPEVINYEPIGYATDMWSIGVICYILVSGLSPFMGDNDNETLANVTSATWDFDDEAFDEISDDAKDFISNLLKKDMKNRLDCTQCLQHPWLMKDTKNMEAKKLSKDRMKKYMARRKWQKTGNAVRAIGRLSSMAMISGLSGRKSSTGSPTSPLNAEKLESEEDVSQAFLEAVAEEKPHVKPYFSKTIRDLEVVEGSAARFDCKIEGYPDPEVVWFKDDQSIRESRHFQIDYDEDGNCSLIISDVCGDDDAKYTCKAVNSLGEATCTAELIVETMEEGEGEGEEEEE", "test": "Kinase selectivity screen", "format": "biochemical", "outline": "as §1"}, "[2]": {"test_system": "panel of 131 human kinases", "test": "Kinase selectivity screen (whole panel)", "format": "biochemical", "conditions": "10 μM", "description": "The substantially less demanding synthesis of ICL-CCIC-0019 compared with MN58B bears additional advantages. […] This consequently diminished intracellular PCho concentration, and importantly, the incorporation of [^3H]-choline into lipids (Figure 1D). […] To assess kinase specificity, ICL-CCIC-0019 was tested against a panel of 131 human kinases (Figure 1E and Supplementary Table S1). […] Inhibition greater than 20% was attained for insulin-like growth factor 1 (IGF-1R, 35 ± 7% inhibition), mitogen-activated protein kinase-activated protein kinase 3 (MAPKAP-K3, 33 ± 6%), extracellular signal regulated kinase 8 (ERK8, 31 ± 4%), ribosomal S6 kinase 1 (RSK1, 22 ± 6%), and v-erb-a erythroblastic leukemia viral oncogene homolog 4 (HER4, 21 ± 7%)."}}, "data": [{"compound": "CN(C)c1cc[n+](CCCCCCCCCCCC[n+]2ccc(N(C)C)cc2)cc1", "note": "[ICL-CCIC-0019]", "values": [{"measurement": "metabolic stability in plasma", "setting": "[1]", "result": "metabolically stable"}, {"measurement": "[18F]-D4-FCH tumor uptake AUC0–60", "setting": "HCT116 xenografts; 6 hours after 10 mg/kg i.p. single dose", "result": "187.7 (%ID/mL)*min"}, {"measurement": "[18F]-D4-FCH tumor uptake AUC0–60", "setting": "HCT116 xenografts; 24 hours after 10 mg/kg i.p. single dose", "result": "145.8 (%ID/mL)*min"}, {"measurement": "[18F]-D4-FCH tumor uptake AUC0–60", "setting": "HCT116 xenografts; 48 hours after 10 mg/kg i.p. single dose", "result": "139.4 (%ID/mL)*min"}, {"measurement": "remaining activity at 10 µM", "setting": "Src", "result": 105, "unit": "%"}, {"measurement": "remaining activity at 10 µM", "setting": "JNK1", "result": 98, "unit": "%"}, {"measurement": "remaining activity at 10 µM", "setting": "MARK3", "result": 106, "unit": "%"}, {"measurement": "remaining activity at 10 µM", "setting": "EF2K", "result": 99, "unit": "%"}, {"measurement": "remaining activity at 10 µM", "setting": "EPH-A4", "result": 124, "unit": "%"}, {"measurement": "remaining activity at 10 µM", "setting": "MAPKAP-K2", "result": 89, "unit": "%"}, {"measurement": "remaining activity at 10 µM", "setting": "HIPK2", "result": 104, "unit": "%"}, {"measurement": "remaining activity at 10 µM", "setting": "BRSK2", "result": 94, "unit": "%"}, {"measurement": "remaining activity at 10 µM", "setting": "CAMKKb", "result": 91, "unit": "%"}, {"measurement": "remaining activity at 10 µM", "setting": "PKD1", "result": 105, "unit": "%"}, {"measurement": "remaining activity at 10 µM", "setting": "TESK1", "result": 101, "unit": "%"}, {"measurement": "remaining activity at 10 µM", "setting": "IKKe", "result": 123, "unit": "%"}, {"measurement": "remaining activity at 10 µM", "setting": "SmMLCK", "result": 104, "unit": "%"}, {"measurement": "inhibition in all 131 kinases", "setting": "[2]", "result": "≤ 35", "unit": "%"}, {"measurement": "number of kinases inhibited more than 20%", "setting": "[2]; 131 kinases", "result": 5}]}]}
